Reference: US12528819B2 (priority 2016, dated 2026)

Molecular target: T1, α5β2γ2 subtype GABAAR (Homo sapiens, UniProt P18507+P31644)
T1 construct: expressed in transfected cells
T1 sequence (P31644 32-462): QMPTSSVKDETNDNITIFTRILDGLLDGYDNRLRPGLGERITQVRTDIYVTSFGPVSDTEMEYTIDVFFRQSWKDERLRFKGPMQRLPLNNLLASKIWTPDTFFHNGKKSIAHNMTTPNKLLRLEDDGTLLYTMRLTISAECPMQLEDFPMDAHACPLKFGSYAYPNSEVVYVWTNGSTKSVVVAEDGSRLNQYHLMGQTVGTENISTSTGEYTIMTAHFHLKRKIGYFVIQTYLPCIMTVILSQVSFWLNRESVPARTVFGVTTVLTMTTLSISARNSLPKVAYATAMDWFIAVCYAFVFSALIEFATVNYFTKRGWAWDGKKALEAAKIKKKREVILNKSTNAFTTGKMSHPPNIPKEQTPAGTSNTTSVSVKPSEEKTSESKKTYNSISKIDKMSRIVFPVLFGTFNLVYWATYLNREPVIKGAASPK
T1 sequence (P47870 25-512 partner limits assumed): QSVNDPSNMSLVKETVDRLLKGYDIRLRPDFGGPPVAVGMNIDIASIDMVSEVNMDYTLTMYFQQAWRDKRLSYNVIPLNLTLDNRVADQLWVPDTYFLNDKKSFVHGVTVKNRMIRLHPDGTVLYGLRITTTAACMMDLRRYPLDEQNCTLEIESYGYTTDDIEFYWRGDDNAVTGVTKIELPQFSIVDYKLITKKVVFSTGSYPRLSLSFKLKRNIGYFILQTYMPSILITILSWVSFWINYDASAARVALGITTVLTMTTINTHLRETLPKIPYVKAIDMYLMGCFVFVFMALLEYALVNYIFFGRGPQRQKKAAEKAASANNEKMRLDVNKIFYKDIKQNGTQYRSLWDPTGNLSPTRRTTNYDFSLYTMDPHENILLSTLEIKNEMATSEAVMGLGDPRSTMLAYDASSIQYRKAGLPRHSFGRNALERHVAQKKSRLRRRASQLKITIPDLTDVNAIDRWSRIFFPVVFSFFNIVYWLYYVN
T1 sequence (P18507 40-467 limits assumed): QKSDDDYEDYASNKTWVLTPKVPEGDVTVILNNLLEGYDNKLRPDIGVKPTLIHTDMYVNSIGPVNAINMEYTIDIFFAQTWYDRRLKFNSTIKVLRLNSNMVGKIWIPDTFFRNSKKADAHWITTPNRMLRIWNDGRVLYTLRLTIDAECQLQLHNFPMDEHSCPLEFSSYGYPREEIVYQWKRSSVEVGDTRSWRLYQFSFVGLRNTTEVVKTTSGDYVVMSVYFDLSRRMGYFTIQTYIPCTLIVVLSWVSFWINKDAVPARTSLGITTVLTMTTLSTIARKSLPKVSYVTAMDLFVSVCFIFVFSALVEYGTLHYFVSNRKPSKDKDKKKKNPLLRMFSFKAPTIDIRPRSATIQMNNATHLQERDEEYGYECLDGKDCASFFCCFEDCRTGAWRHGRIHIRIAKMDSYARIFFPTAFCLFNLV
Assay: Positive allosteric modulator activity: potentiation of EC20 GABA current in oocytes
Type: cell-based
Settings: read-out: GABA α5 Functional Data (potentiation), @ 100 nM, reported as ranges
Method: (B) Positive Allosteric Modulator Activity of Test Compounds on α5β2γ2 Subtype GABAAR
On day 1, 1 ng/32 nL of GABAA α5β2γ2 cDNA was injected into one oocyte. Test starts on day 2. The cDNA injected to the oocytes was a mix of alpha, beta and gamma, their ratio is 1:1:10 (by weight) and the total weight of the mixed 3 subunits to be injected in one oocyte was 1 ng in 32 nl volume. The injected oocytes can also be tested on day 3. In such case, the cDNA amount injected to the oocytes should be reduced by 20%.
Compounds of the present invention were tested using the following procedures.
• 1). 8 oocytes were placed in 8 chambers of OpusXpress and superfused with Modified Barth's Saline (MBS) at 3 mL/min. Glass electrodes back-filled with 3M KCl (0.5-3 megaohms) were used.
Control test (Diazepam or methyl 3,5-diphenylpyridazine-4-carboxylate) • 1). New oocytes was used to run new test. • 2). […] Oocytes were washed with MBS for 5-10 min. • 4). […] Itest was divided by IGABA to obtain potentiation (%). Test Compounds at Multiple Doses • 1). Repeat the above steps 1), 2) and 3) in the control test. • 2). […] Divide Itest by IGABA to obtain potentiation (%). • 3). Discard all tested oocytes, new oocytes were used and the above steps 1) and 2) were repeated to test second concentration of the same compound. Each oocyte was used for only one concentration test for a single test compound. The steps were repeated for other test compounds.

COCc1nnc2n1Cc1c(-c3nc(-c4ccc(F)cc4)co3)ncn1-c1ccc(Cl)cc1-2 [Compound 324] and CCOCc1nnc2n1Cc1c(C3=N[C@@H](c4ccc(F)cc4)CO3)ncn1-c1ccc(Cl)cc1-2 [Compound 325] fall in the same range of activation at 0.1 µM: 20 to 50% for the first, 20 to 50% for the second.

CC(C)OCc1nnc2n1Cc1c(C3=N[C@@H](c4ccc(F)cc4)CO3)ncn1-c1ccc(Cl)cc1-2 [Compound 326] and COCc1nnc2n1Cc1c(C3=N[C@@H](c4ccc(Cl)cc4)CO3)ncn1-c1ccc(Cl)cc1-2 [Compound 334] fall in the same range of activation at 0.1 µM: 20 to 50% for the first, 20 to 50% for the second.

First: C#Cc1ncn2c1Cn1c(COC)nnc1-c1cc(OC)ccc1-2 [Compound 328, 5-ethynyl-15-methoxy-9-(methoxymethyl)-2,4,8,10,11-pentaazatetracyclo[11.4.0.0^2,^60.0^8,^12]heptadeca-1(17),3,5,9,11,13,15-heptaene]
Second: CC#Cc1ncn2c1Cn1c(COC)nnc1-c1cc(Cl)ccc1-2 [Compound 339]
The activation at 0.1 µM of the first is lower: 5 to 20% for the first, 20 to 50% for the second.

First: COCc1nnc2n1Cc1c(C3=N[C@@H](c4ccccc4C)CO3)ncn1-c1ccc(Cl)cc1-2 [Compound 330]
Second: COCc1nnc2n1Cc1c(C3=N[C@@H](c4ccccc4OC)CO3)ncn1-c1ccc(Cl)cc1-2 [Compound 331]
The activation at 0.1 µM of the first is higher: 20 to 50% for the first, 5 to 20% for the second.

COCc1nnc2n1Cc1c(C3=N[C@@H](c4ccc(OC)cc4)CO3)ncn1-c1ccc(Cl)cc1-2 [Compound 332] and COCc1nnc2n1Cc1c(C3=N[C@@H](c4cccc(OC)c4)CO3)ncn1-c1ccc(Cl)cc1-2 [Compound 333] fall in the same range of activation at 0.1 µM: 5 to 20% for the first, 5 to 20% for the second.

First: COCc1nnc2n1Cc1c(C3=N[C@@H](c4cc(F)ccc4F)CO3)ncn1-c1ccc(Cl)cc1-2 [Compound 335]
Second: COCc1nnc2n1Cc1c(C3=N[C@@H](c4ccc(C(F)(F)F)cc4)CO3)ncn1-c1ccc(Cl)cc1-2 [Compound 337]
The activation at 0.1 µM of the first is lower: 5 to 20% for the first, 20 to 50% for the second.

COCc1nnc2n1Cc1c(C3=N[C@H](c4ccccc4)CO3)ncn1-c1ccc(OC)cc1-2 [Compound 340] and COCc1nnc2n1Cc1c(C3=N[C@@H](c4ccccc4)CO3)ncn1-c1ccc(OC)cc1-2 [Compound 343] fall in the same range of activation at 0.1 µM: 20 to 50% for the first, 20 to 50% for the second.

First: CCOCc1nnc2n1Cc1c(-c3ncco3)ncn1-c1ccc(Cl)cc1-2 [Compound 341]
Second: Clc1ccc2c(c1)-c1nnc(COCc3ccccc3)n1Cc1c(-c3ncco3)ncn1-2 [Compound 350]
The activation at 0.1 µM of the first is lower: 5 to 20% for the first, > 50% for the second.

CCC#Cc1ncn2c1Cn1c(COC)nnc1-c1cc(Cl)ccc1-2 [Compound 345] and COCc1nnc2n1Cc1c(C#CCc3ccccc3)ncn1-c1ccc(Cl)cc1-2 [Compound 346] fall in the same range of activation at 0.1 µM: 20 to 50% for the first, 20 to 50% for the second.

First: Clc1ccc2c(c1)-c1nnc(COc3ccccc3)n1Cc1c(-c3ncco3)ncn1-2 [Compound 349]
Second: Fc1ccccc1OCc1nnc2n1Cc1c(-c3ncco3)ncn1-c1ccc(Cl)cc1-2 [Compound 355]
The activation at 0.1 µM of the first is lower: 5 to 20% for the first, 20 to 50% for the second.

Compared with C#Cc1ncn2c1Cn1c(COCc3ccccc3)nnc1-c1cc(Cl)ccc1-2 [Compound 351], C#Cc1ncn2c1Cn1c(COc3ccccc3F)nnc1-c1cc(Cl)ccc1-2 [Compound 353, 15-chloro-5-ethynyl-9-(2-fluorophenoxymethyl)-2,4,8,10,11-pentaazatetracyclo[11.4.0.0^2,^60.0^8,^12]heptadeca-1(17),3,5,9,11,13,15-heptaene] is higher in activation at 0.1 µM: 20 to 50% for the first, > 50% for the second.

First: CC#Cc1ncn2c1Cn1c(COc3ccccc3F)nnc1-c1cc(Cl)ccc1-2 [Compound 354]
Second: Cc1ccccc1C#Cc1ncn2c1Cc1cnnn1-c1cc(Cl)ccc1-2 [Compound 396]
The activation at 0.1 µM of the first is higher: 20 to 50% for the first, 5 to 20% for the second.

Compared with C#Cc1ncn2c1Cc1cnnn1-c1cc(Cl)ccc1-2 [Compound 356], CC(C)C#Cc1ncn2c1Cc1cnnn1-c1cc(Cl)ccc1-2 [Compound 415] is lower in activation at 0.1 µM: > 50% for the first, 20 to 50% for the second.

Clc1ccc2c(c1)-n1nncc1Cc1c(C3=N[C@@H](c4ccccc4)CO3)ncn1-2 [Compound 357] and Clc1ccc2c(c1)-n1nncc1Cc1c(C3=N[C@H](c4ccccc4)CO3)ncn1-2 [Compound 358] fall in the same range of activation at 0.1 µM: 20 to 50% for the first, 20 to 50% for the second.

Compared with Fc1ccc([C@H]2COC(c3ncn4c3Cc3cnnn3-c3cc(Cl)ccc3-4)=N2)cc1 [Compound 359], Clc1ccc([C@H]2COC(c3ncn4c3Cc3cnnn3-c3cc(Cl)ccc3-4)=N2)cc1 [Compound 361] is higher in activation at 0.1 µM: 5 to 20% for the first, 20 to 50% for the second.

Fc1ccccc1[C@H]1COC(c2ncn3c2Cc2cnnn2-c2cc(Cl)ccc2-3)=N1 [Compound 360] and FC(F)(F)c1ccc([C@H]2COC(c3ncn4c3Cc3cnnn3-c3cc(Cl)ccc3-4)=N2)cc1 [Compound 362] fall in the same range of activation at 0.1 µM: 20 to 50% for the first, 20 to 50% for the second.

COc1ccc2c(c1)-n1nncc1Cc1c(C3=N[C@@H](c4ccc(F)cc4)CO3)ncn1-2 [Compound 367] and COc1ccc2c(c1)-n1nncc1Cc1c(C3=N[C@@H](c4ccc(Cl)cc4)CO3)ncn1-2 [Compound 368] fall in the same range of activation at 0.1 µM: 5 to 20% for the first, 5 to 20% for the second.

CC(C)c1coc(-c2ncn3c2Cc2cnnn2-c2cc(Cl)ccc2-3)n1 [Compound 387] and COc1ccc(C#Cc2ncn3c2Cc2cnnn2-c2cc(Cl)ccc2-3)cc1 [Compound 397] fall in the same range of activation at 0.1 µM: 20 to 50% for the first, 20 to 50% for the second.

Clc1ccc2c(c1)-n1nncc1Cc1c(C#Cc3ccccc3)ncn1-2 [Compound 395] and COc1ccc2c(c1)-n1nncc1Cc1c(C#Cc3ccccc3)ncn1-2 [Compound 404] fall in the same range of activation at 0.1 µM: 5 to 20% for the first, 5 to 20% for the second.

FC(F)(F)CC#Cc1ncn2c1Cc1cnnn1-c1cc(Cl)ccc1-2 [Compound 398] and FC(F)(F)c1ccc(C#Cc2ncn3c2Cc2cnnn2-c2cc(Cl)ccc2-3)cc1 [Compound 400] fall in the same range of activation at 0.1 µM: 20 to 50% for the first, 20 to 50% for the second.

Clc1ccc2c(c1)-n1nncc1Cc1c(C#Cc3ccccn3)ncn1-2 [Compound 401] and COc1ccc2c(c1)-n1nncc1Cc1c(C#Cc3ccccn3)ncn1-2 [Compound 408] fall in the same range of activation at 0.1 µM: 5 to 20% for the first, 5 to 20% for the second.

First: Clc1ccc2c(c1)-n1nncc1Cc1c(C#Cc3cccnc3)ncn1-2 [Compound 402]
Second: COc1ccc2c(c1)-n1nncc1Cc1c(C#Cc3cccnc3)ncn1-2 [Compound 407]
The activation at 0.1 µM of the first is higher: 20 to 50% for the first, 5 to 20% for the second.

COc1ccc2c(c1)-n1nncc1Cc1c(C#Cc3ccccc3C)ncn1-2 [Compound 405] and COc1ccc2c(c1)-n1nncc1Cc1c(C#CCc3ccccc3)ncn1-2 [Compound 413] fall in the same range of activation at 0.1 µM: 5 to 20% for the first, 5 to 20% for the second.

COc1ccc2c(c1)-n1nncc1Cc1c(C#Cc3ccc(C(F)(F)F)cc3)ncn1-2 [Compound 406] and COc1ccc(C#Cc2ncn3c2Cc2cnnn2-c2cc(OC)ccc2-3)cc1 [Compound 414] fall in the same range of activation at 0.1 µM: 20 to 50% for the first, 20 to 50% for the second.

COc1cccc(C#Cc2ncn3c2Cc2cnnn2-c2cc(OC)ccc2-3)c1 [Compound 409] and COc1ccc2c(c1)-n1nncc1Cc1c(C#CCc3cccc(Cl)c3)ncn1-2 [Compound 417] fall in the same range of activation at 0.1 µM: 5 to 20% for the first, 5 to 20% for the second.

Work on COc1ccc2c(c1)-n1nncc1Cc1c(C#CCc3cccc(OC(F)(F)F)c3)ncn1-2 [Compound 418] yielded an activation at 0.1 µM of 20 to 50%.
